{
  "source": "paper PMC8047011",
  "about": "“Enantiomers of 2-methylglutamate and 2-methylglutamine selectively impact mouse brain metabolism and behavior” (Scientific Reports, 2021)",
  "molecular_target": "T1, human glutaminase GLS1 (Homo sapiens, UniProt O94925)",
  "T1 sequence (O94925 55-669)": "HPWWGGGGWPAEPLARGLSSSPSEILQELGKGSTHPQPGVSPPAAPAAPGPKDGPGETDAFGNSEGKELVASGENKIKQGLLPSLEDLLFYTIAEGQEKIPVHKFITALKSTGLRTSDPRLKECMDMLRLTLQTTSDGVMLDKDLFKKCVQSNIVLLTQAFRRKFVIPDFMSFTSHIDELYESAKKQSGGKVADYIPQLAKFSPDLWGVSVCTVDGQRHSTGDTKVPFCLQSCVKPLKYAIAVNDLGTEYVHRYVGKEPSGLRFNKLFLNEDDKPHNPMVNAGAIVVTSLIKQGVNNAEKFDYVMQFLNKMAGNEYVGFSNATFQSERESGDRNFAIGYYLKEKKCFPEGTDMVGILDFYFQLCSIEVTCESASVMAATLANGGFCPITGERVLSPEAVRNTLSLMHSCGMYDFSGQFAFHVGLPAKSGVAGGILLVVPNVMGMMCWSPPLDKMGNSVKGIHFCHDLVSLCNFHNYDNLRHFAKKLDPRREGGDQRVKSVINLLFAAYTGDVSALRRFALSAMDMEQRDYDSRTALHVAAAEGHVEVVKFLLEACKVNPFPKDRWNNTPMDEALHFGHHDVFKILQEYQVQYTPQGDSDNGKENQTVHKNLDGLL",
  "experiment": "Catalysis of 2MeGln hydrolysis by GLS1 glutaminase",
  "assay_type": "biochemical",
  "method": "The procedure was adapted from an existing protocol. To a reaction mixture in a 1.5 mL microcentrifuge tube containing 10 mM rac-2MeGln or L-Gln-^13C2 in 100 mM phosphate pH 7.4 buffer made in 20% atom ^18O water, recombinant GLS1 (final concentration: 5 ng/mL) was added. The tubes were incubated in a preheated thermomixer at 37 °C and periodically shaken at 600 rpm (30 s on, 30 s off). 5 μL aliquots were collected in triplicate every 5 min and immediately diluted with 195 μL of cold 60% ACN containing 10 μM Glu-d5 and Gln-d5 as internal standards in a 96 well plate. After collecting all samples, the plate was shaken at 1000 rpm for 5 min at room temperature, and then stored at − 80 °C. Before analysis the plate was thawed and 10 μL aliquots of the extracted reaction mixtures were diluted with 190 μL of 90% acetonitrile.\nThe quantification of the newly formed 2MeGlu in the presence of the preexisting trace amounts was performed in the following way. Peak area ratio of Glu-^13C2 to Glu-^13C2^18O was calculated in all samples containing Glu-^13C2. The mean ratio value was then applied to calculate the hypothetical peak area of the newly formed 2MeGlu based on the directly measured 2MeGlu-^18O peak area. The ratio of the newly formed 2MeGlu peak area and the total 2MeGlu peak area was applied to calculate the concentration of the newly formed 2MeGlu from the total 2MeGlu concentration determined directly using the calibration curve.",
  "data": [
    {"smiles": "CC(N)(CCC(N)=O)C(=O)O", "note": "(racemic) [rac-2MeGln, rac-2-methylglutamine]", "values": [
      {"measurement": "Substrate for GLS1", "value": "at least one enantiomer of 2MeGln is a substrate for human GLS1, albeit relatively slow"},
      {"measurement": "Apparent GLS1 reaction rate, fold lower compared to Gln", "setting": "10 mM substrate", "value": "approximately 35 fold"},
      {"measurement": "Apparent reaction rate of GLS1 hydrolysis", "setting": "10 mM substrate, 5 ng/mL enzyme, phosphate pH 7.4", "value": 1.9, "unit": "µM/min"}
    ]}
  ]
}
